# Measured values as given in US4958010A, “Epipodophyllotoxin glucoside lactam derivatives” (Bristol-Myers Company, priority 1989, dated 1990).
# Where “and” joins values, the source holds several entries; their conditions need not be identical. Equal entries are not always repeated. Structures can show the parent of a compound that is named as a salt.
# What was measured:
# [1] = Cancer Chemoth. Rep., 1966, 50:565-571; cited from earlier work
# Moser human colon = assay: in vitro cytotoxicity assay, Moser human colon; assay type: cell-based; conditions: concentration required to inhibit cell growth by 50%, four-fold serial dilution, replicate determinations on separate lines; for IC50: Homo sapiens
# Procedure: (§1) Representative compounds of the present invention were also evaluated in in vitro cytotoxicity assay against various murine and human tumor cell lines. The in vitro cytotoxicity assay involved growing various mammalian tumor cells, including human tumor cells, on microtitre plates employing established tissue culture methods. The concentration of each compound required to inhibit cell growth by 50% (IC50) was then determined by four-fold serial dilution technique. Tumor cells of the following types were employed for each compound tested: B16-F10 murine melanoma; Moser human colon; SW900 human lung; and two human colon tumor cell lines namely HCT-116, and HCT/VP35, the latter being resistant to etoposide (VP). […] The in vitro data may also be evaluated in terms of potency ratio which is defined as the ratio of IC50 against an etoposide-resistant cell-line to IC50 against an etoposide-sensitive cell-line.
# B16-F10 murine melanoma = assay: in vitro cytotoxicity assay, B16-F10 murine melanoma; assay type: cell-based; conditions: four-fold serial dilution, replicate determinations on separate lines; for IC50: Mus musculus, B16-F10, concentration required to inhibit cell growth by 50%; for IC50 B16-F10: concentration required to inhibit cell growth by 50%
# Procedure: as §1
# SW900 human lung = assay: in vitro cytotoxicity assay, SW900 human lung; assay type: cell-based; conditions: four-fold serial dilution, replicate determinations on separate lines; for IC50: Homo sapiens, SW900, concentration required to inhibit cell growth by 50%; for IC50 SW900: concentration required to inhibit cell growth by 50%
# Procedure: as §1
# HCT/VP35 = assay: in vitro cytotoxicity assay, HCT/VP35 human colon tumor resistant to etoposide; assay type: cell-based; conditions: for IC50: Homo sapiens, HCT/VP35, etoposide-resistant line; for IC50 / IC50 HCT/VP35: concentration required to inhibit cell growth by 50%, four-fold serial dilution, replicate determinations on separate lines; for IC50 HCT/VP35: etoposide-resistant line
# Procedure: as §1
# HCT-116 = assay: in vitro cytotoxicity assay, HCT-116 human colon tumor; assay type: cell-based; conditions: four-fold serial dilution, replicate determinations on separate lines; for IC50: Homo sapiens, HCT-116, concentration required to inhibit cell growth by 50%; for IC50 HCT-116: concentration required to inhibit cell growth by 50%
# Procedure: as §1
# [2] = cited from earlier work
# P388 leukemia = assay: antitumor activity against intravenously implanted P388 leukemia in BDF1 female mice; assay type: in vivo, murine (BDF1 female mice); conditions: 10^6 P388 cells i.v., 64 days
# Procedure: Compound of Example 15 was evaluated against intravenously implanted P388 leukemia (10^6 cells) in BDF1 female mice. The test compound was administered intravenously at various dose levels to groups of six mice on days 5 and 8; the positive control, etoposide, was given intraperitoneally. The experiment lasted 64 days.
SMILES,IC50 (Moser human colon) [µg/mL],IC50 Moser (Moser human colon),IC50 (B16-F10 murine melanoma) [µg/mL],IC50 B16-F10 (B16-F10 murine melanoma),IC50 (SW900 human lung) [µg/mL],IC50 SW900 (SW900 human lung),IC50 (HCT/VP35) [µg/mL],IC50 HCT/VP35 (HCT/VP35),IC50 (HCT-116) [µg/mL],IC50 HCT-116 (HCT-116),also measured
"CCNNC(=O)C1C(c2cc(OC)c(OC)c(OC)c2)c2cc3c(cc2C(O)C1CO)OCO3 (stereo not shown) [ethyl hydrazide of podophyllotoxin (V), ethyl hydrazide of podophyllotoxin]",–,–,–,–,–,–,–,–,–,–,antitumor activity in clinical trials [1]: minimal antitumor activity
"CCCCCCCC(=O)Oc1c(OC)cc([C@@H]2c3cc4c(cc3[C@@H](O[C@@H]3O[C@@H]5CO[C@@H](C)O[C@H]5[C@H](O)[C@H]3O)[C@H]3CN(N=Cc5ccccc5)C(=O)[C@H]23)OCO4)cc1OC [Example 10, 6H-Pyrrolo[3',4':6,7]naphtho[2,3-d]-1,3-dioxole-6-one, 5,5a,7,8,8a,9-hexahydro-9-[(4,6-O-ethylidene-β-D-glucopyranosyl)oxy]-5-[(3,5-dimethoxy-4-octanoyloxy)phenyl]-7-[(phenylmethylene)amino]-, [5R-[5α,5aβ,8aα, 9β(R*)]-]",25.6,16.38 µg/mL,23.6,16.76 µg/mL,21.2,19.82 µg/mL,25.6,13.50 µg/mL,17.3,16.05 µg/mL,"potency ratio IC50 HCT/VP35 : IC50 HCT-116 (HCT/VP35; ratio of IC50 against etoposide-resistant cell line to IC50 against etoposide-sensitive cell line, same experiment): 1"
"COc1cc([C@@H]2c3cc4c(cc3[C@@H](O[C@@H]3O[C@@H]5CO[C@@H](C)O[C@H]5[C@H](O)[C@H]3O)[C@H]3COC(=O)[C@H]23)OCO4)cc(OC)c1O [etoposide, reference compound]",–,121.73 µg/mL and 163.19 µg/mL and 208.30 µg/mL and 209.76 µg/mL and 65.72 µg/mL and 54.09 µg/mL,–,16.75 µg/mL and 19.47 µg/mL and 27.72 µg/mL and 30.38 µg/mL and 9.96 µg/mL and 5.80 µg/mL,–,201.94 µg/mL and 241.29 µg/mL and 243.49 µg/mL and > 500 µg/mL and 77.80 µg/mL and 54.59 µg/mL,–,122.79 µg/mL and 184.01 µg/mL and 98.33 µg/mL and 142.90 µg/mL and 79.06 µg/mL and 48.22 µg/mL,–,14.78 µg/mL and 20.54 µg/mL and 38.03 µg/mL and 41.01 µg/mL and 3.86 µg/mL and 6.57 µg/mL,"in vivo metabolism [2]: extensively metabolized to the open ring hydroxy acid; IC50 Moser (Moser human colon; listed as Etoposide): 94.51 µg/mL and 97.83 µg/mL and 116.41 µg/mL; IC50 B16-F10 (B16-F10 murine melanoma; listed as Etoposide): 19.36 µg/mL and 51.93 µg/mL and 62.19 µg/mL; IC50 SW900 (SW900 human lung; listed as Etoposide): 213.23 µg/mL and 241.88 µg/mL; IC50 HCT/VP35 (HCT/VP35; listed as Etoposide): 16.31 µg/mL and 18.74 µg/mL and 140.63 µg/mL; IC50 HCT-116 (HCT-116; listed as Etoposide): 15.21 µg/mL and 30.12 µg/mL and 51.27 µg/mL; max. % T/C (positive control) (P388 leukemia; etoposide i.p., 125 mg/kg/dose): > 753 % T/C"
"COc1cc([C@@H]2c3cc4c(cc3[C@@H](O[C@@H]3O[C@@H]5CO[C@@H](C)O[C@H]5[C@H](O)[C@H]3O)[C@H]3CNC(=O)[C@H]23)OCO4)cc(OC)c1OP(=O)(O)O [Example 15, 6H-Pyrrolo[3',4':6,7]naphtho[2,3-d]-1,3-dioxole-6-one, 5,5a,7,8,8a,9-hexahydro-9-[(4,6-O-ethylidene-β-Dglucopyranosyl)oxy]-5-[(3,5-dimethoxy-4-phosphonoxy)phenyl]-1, disodium salt, [5R-[5α,5aβ,8aα,9β(R*)]-]",–,–,–,–,–,–,–,–,–,–,"max. % T/C (P388 leukemia; drug i.v. on days 5 and 8, 200 mg/kg/dose): 235 % T/C"
"COc1cc([C@@H]2c3cc4c(cc3[C@@H](O[C@@H]3O[C@@H]5CO[C@@H](C)O[C@H]5[C@H](O)[C@H]3O)[C@@H](CO)[C@@H]2C(N)=O)OCO4)cc(OC)c1O (relative stereo) [Example 2, Naphtho[2,3-d]-1,3-dioxole-6-carboxamide, 5,6,7,8-tetrahydro-8-[(4,6-0-ethylidene-β-D-glucopyranosyl)oxy]-5-[(4-hydroxy-3,5-dimethoxy)phenyl]-7-(hydroxymethyl)-, [5Rα,6α,7β,8β(R*)]-]",107,115.67 µg/mL,70.6,93.03 µg/mL,106,120.54 µg/mL,> 250,–,78.6,96.28 µg/mL,–
